Patent US20230357248A1, “PYRROLOPYRIMIDINE COMPOUND AS BTK INHIBITOR AND USE THEREOF” (MEDSHINE DISCOVERY INC., priority 2019, published 2023)
≈ marks a conversion by molar mass, not a printed value.

Tests used:
[1] = Plasma protein binding (PPB) assay, D; format: in vitro ADME; conditions: dog, dialysis 4 hr 37° C.
Method: (§1) Assay procedure: 995 μL of blank plasma of various genera were weighed, and 5 μL of assay compound working solution (400 μM) or warfarin working solution (400 μM) was added so that the final concentrations of the assay compound and warfarin in plasma sample were each 2 μM. The samples were mixed thoroughly. The final concentration of DMSO (the organic phase) was 0.5%. 50 μL of the plasma samples of the assay compound and warfarin were pipetted to a sample receiving plate (in triplicate), and the corresponding volume of corresponding blank plasma or buffer was added immediately, so that the final volume in each sample well was 100 μL, wherein the volume ratio of plasma:dialysis buffer was 1:1. 500 μL of stop solution was then added to these samples. These samples were used as T0 samples for determination of recovery and stability. […] All samples were subjected to protein precipitation, and then analyzed by LC/MS/MS. Bound rate and recovery rate of protein were calculated using the following formulae: % Unbound=100*F/T, % Bound=100−% Unbound, % Recovery=100*(F+T)/T0 (wherein F is the peak area ratio of the compound in the dialysate after 4 h of dialysis; T is the peak area ratio of the compound in the plasma after 4 h of dialysis; To is the peak area ratio of the compound in the plasma sample at time zero).

[2] = Plasma protein binding (PPB) assay, R; format: in vitro ADME; conditions: rat, dialysis 4 hr 37° C.
Method: as §1

[3] = Pharmacokinetic evaluation in SD rat (oral); format: in vivo; conditions: about 2 mg/kg
[4] = Plasma protein binding (PPB) assay, C; format: in vitro ADME; conditions: cynomolgus monkey, dialysis 4 hr 37° C.
Method: as §1

[5] = Pharmacokinetic evaluation in CD-1 mouse (intravenous); format: in vivo; conditions: male, plasma, IV 0.21 mg/kg
Method: Assay purpose: To assay the pharmacokinetics of the compound in CD-1 mouse (intravenous)
Pharmacokinetic study of oral and intravenously injected compound 4 and reference example 1 (compound 005-1) in CD-1 mouse
(§2) Compound 4 and reference example 1 were mixed with the solvent (10% NMP/60% PEG400/30% H2O). The mixture was vortexed and sonicated to prepare a clarified solution of 0.1 mg/mL. 7- to 10-week old CD-1 male mice were selected, and the candidate compound solution was administered intravenously at a dose of 0.21 mg/kg.
(§3) Whole blood was collected for a certain period of time to prepare the plasma. Drug concentration was analyzed by LC-MS/MS, and pharmacokinetic parameters were calculated by Phoenix WinNonlin software (Pharsight, USA).

[6] = Assay of kinetic solubility; format: physicochemical; conditions: buffer solution, aqueous buffer, kinetic from dmso stock, pH 6.5 in table head (method says pH 7.4), 24 hours room temperature, theoretical maximum 200 μM
Method: The assay compound was dissolved in DMSO to prepare 10 mmol/L stock solution. 980 μL of dissolution medium was added to a 2 mL glass vial with a screw cap using a pipette (Eppendorf Research Company). […] The final concentrations of the assay compound and DMSO solution were 200 μM and 2%, respectively. The vias were capped. The theoretical maximum concentration was 200 μM. The mixture was shaken at 880 rpm at room temperature for 24 hours. The vials were centrifuged at 13,000 rpm for 30 minutes. 200 μL of supernatant was added to a 96-well plate using a digital pipette.

[7] = Pharmacokinetic evaluation in CD-1 mouse (oral); format: in vivo; conditions: 3.1 mg/kg
Method: Assay purpose: To assay the pharmacokinetics of the compound in CD-1 mouse (oral)
Pharmacokinetic study of oral and intravenously injected compound 4 and reference example 1 (compound 005-1) in CD-1 mouse.
as §2, with “example 1 (compound 005-1) were mixed” for “example 1 were mixed”, “solution of 0.6 mg/mL. 7-” for “solution of 0.1 mg/mL. 7-”, “dose of 3.1 mg/kg.” for “dose of 0.21 mg/kg.”
as §3

[8] = biological target: BTK^C481S (Homo sapiens (Human), UniProt Q06187, C481S); experiment: BTK enzyme activity assay; format: biochemical; conditions: 200 μM ATP; 33P-ATP, filter-binding method
Method: The specific assay process of BTK enzyme activity assay is as follows: Buffer: 20 mM 2-[4-(2-hydroxyethyl)-1-piperazinyl]ethanesulfonic acid (Hepes) (pH 7.5), 10 mM magnesium chloride, 1 mM ethylenebis(oxyethylenenitrilo)tetraacetic acid (EGTA), 0.02% polyoxyethylene dodecyl ether (Brij35), 0.02 mg/mL BSA, 0.1 mM sodium vanadate (Na3VO4), 2 mM dithiothreitol (DTT), 1% DMSO, 200 μM adenosine triphosphate (ATP). • 1. The substrate was prepared in freshly prepared reaction buffer; • 2. The required cofactor was added to the above-mentioned substrate solution; • 3. The kinase BTK^C481S was added to the above-mentioned substrate solution and mixed well; • 4. The compound dissolved in DMSO was added to the kinase reaction mixture by Echo550 (Acoustic technology; nanoliter range), and the mixture was incubated at room temperature for 20 minutes; • 5. ^33P-ATP (specific radioactivity of 10 μCi/μL) was added to the reaction mixture to initiate the reaction; • 6. The mixture was incubated at room temperature for 2 hours; • 7. The radioactivity was detected by filter-binding method; • 8. Kinase activity data represented the percentage of remaining kinase activity in the assay sample compared to the vehicle (dimethyl sulfoxide) reaction.

[9] = AUCu = AUC0-inf * Unbound PPB (Mouse)

BTK^C481S, sequence (Q06187 whole entry C481S): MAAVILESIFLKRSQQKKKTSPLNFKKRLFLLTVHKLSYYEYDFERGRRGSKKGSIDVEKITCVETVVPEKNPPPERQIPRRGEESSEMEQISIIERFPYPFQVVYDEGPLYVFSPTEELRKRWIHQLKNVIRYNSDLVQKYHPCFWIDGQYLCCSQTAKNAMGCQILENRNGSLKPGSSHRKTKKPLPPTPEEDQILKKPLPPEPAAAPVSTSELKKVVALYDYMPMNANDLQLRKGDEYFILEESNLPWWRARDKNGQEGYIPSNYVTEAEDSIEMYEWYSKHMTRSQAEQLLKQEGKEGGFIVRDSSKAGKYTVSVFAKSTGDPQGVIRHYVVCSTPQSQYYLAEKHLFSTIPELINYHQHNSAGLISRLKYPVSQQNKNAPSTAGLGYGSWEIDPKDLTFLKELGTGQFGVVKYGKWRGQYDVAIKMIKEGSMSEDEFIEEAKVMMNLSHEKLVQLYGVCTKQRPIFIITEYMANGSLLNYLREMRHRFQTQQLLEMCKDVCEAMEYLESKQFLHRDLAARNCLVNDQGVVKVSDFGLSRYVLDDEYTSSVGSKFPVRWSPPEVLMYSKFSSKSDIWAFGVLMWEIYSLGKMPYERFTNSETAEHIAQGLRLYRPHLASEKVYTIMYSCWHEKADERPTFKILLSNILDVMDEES

CO[C@@H]1C[C@@H](CO)OC[C@@H]1Nc1ncnc2[nH]cc(C(=O)c3ccc(Oc4ccccc4)cc3Cl)c12 [Compound 4]
fraction unbound at 4 h, 2 μM [1]: 0.001
fraction unbound at 4 h, 2 μM [2]: 0.002
AUCu ([3]; AUCu = AUC0-inf * Unbound PPB (in vivo assay of PPB in rat)): 0.0078 µM·h
AUC(0-inf) ([3]; male, plasma): 3.89 µM·h
Cmax ([3]; male, plasma): 587 nM
bioavailability ([3]; male, plasma): 57.3%
half-life ([3]; male, plasma): 2.33 h
fraction unbound at 4 h, 2 μM [4]: 0.001
AUC(0-inf) [5]: 3.11 µM·h
C0 [5]: 562 nM
Vd [5]: 0.85 L/kg
clearance [5]: 2.12 mL/min/kg
half-life [5]: 4.65 h
AUC [5, 9]: 0.0124 µM·h
solubility at 24 h [6]: 1.1 µM (≈ 0.56 µg/mL)
AUCu [7, 9]: 0.133 µM·h
AUC(0-inf) ([7]; male, plasma): 33.2 µM·h
Cmax ([7]; male, plasma): 2980 nM
bioavailability ([7]; male, plasma): 71.7%
half-life ([7]; male, plasma): 3.73 h
IC50 [8]: 7.3 nM
